# Experimental data published in patent US20230285490A1, “ADDITIVE TO FISH FOOD COMPRISING TWO PLANT EXTRACTS AND A SEAWEED (PALMARIA PALMATA) EXTRACT AS TASTE MASKING AGENT; AND A METHOD TO COMBAT/ELIMINATE INFESTATIONS OF CALIGUS BY STERILIZATION OF FEMALE INDIVIDUALS IN FISH FARMING CENTERS AND MARINE CONCESSIONS” (priority 2020, published 2023).
# Test system: ovigerous Caligus females
# Test: In vitro plate bioassay on swimming behavior and survival of ovigerous Caligus females, comparison with emamectin benzoate (Example 7)
# Conditions: 2 hours, 14° C., sea water
# Text: However, 75% living females slowly swam, having a slow response to stimulus and adhered to experimentation vessels. • Between 87 and 100% parasites survived in control with solvents (methanol and DMSO) used to prepare each product and in sea water. Under these conditions females actively swam and readily responded to stimulus as bubbles of the aeration system or manipulation with tweezers.
substance,measurement,setting,value
emamectin benzoate,Affected and dead Total (%),15 ovigerous females,27%
same,Affected ovigerous females,15 ovigerous females,1
same,Vivas (living ovigerous females),15 ovigerous females,11
same,dead ovigerous females,15 ovigerous females,3
same,Affected and dead Total (%),"15 ovigerous females, listed as emamectin benzoate",25%
same,remaining living females with slow/erratic swimming,,75%
